Data reported in ChEMBL document CHEMBL1201862, “PubChem BioAssay data set” (2004).
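Growth conditions: 96-well plates. Treatment: test compound, 48 hours, 5 concentrations. Analysis: linear interpolation between bracketing concentrations; unreached endpoints set to highest concentration. Abbreviation: GI50, concentration required for 50% inhibition of growth.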 Active and inactive are the calls of the source. Rule as the data show it: active = GI50 up to about 1.1 µM and inactive = higher.

Assays:
Assay in all cases: NCI-60 cell line screen, 48 h
[1] = test system: 786-0
[2] = test system: A549
[3] = test system: EKVX
[4] = test system: HOP-92
[5] = test system: IGROV-1
[6] = test system: K562
[7] = test system: MDA-MB-231
[8] = test system: MOLT-4
[9] = test system: Malme-3M
[10] = test system: OVCAR-4
[11] = test system: OVCAR-5
[12] = test system: RPMI-8226
[13] = test system: SK-MEL-5
[14] = test system: SK-OV-3
[15] = test system: SNB-19
[16] = test system: SR
[17] = test system: SW-620
[18] = test system: T47D
[19] = test system: U-251
[20] = test system: UO-31

Measured: GI50

CSc1ccc(NC(=O)C2CCCCC2C(=O)O)cc1 (stereo not given)
inactive: [1] > 100 µM | [2] > 100 µM | [3] > 100 µM | [4] > 100 µM | [5] > 100 µM | [6] > 100 µM | [7] > 100 µM | [8] 38.6 µM | [9] > 100 µM | [10] > 100 µM | [11] > 100 µM | [12] > 100 µM | [13] > 100 µM | [14] > 100 µM | [15] > 100 µM | [16] > 100 µM | [17] > 100 µM | [18] > 100 µM | [19] > 100 µM | [20] > 100 µM

CN1C(=O)c2c(c3c4ccccc4n(C)c3c3c2c2ccccc2n3C)C1=O
inactive: [1] > 100 µM | [2] > 100 µM | [3] > 100 µM | [4] > 100 µM | [5] > 100 µM | [6] > 100 µM | [7] > 100 µM | [8] > 100 µM | [9] > 100 µM | [10] > 100 µM | [11] > 100 µM | [12] > 100 µM | [13] > 100 µM | [14] > 100 µM | [15] > 100 µM | [16] 67.3 µM | [17] > 100 µM | [18] > 100 µM | [19] > 100 µM | [20] > 100 µM

COC(=O)C1=C(O)C(C(=O)OC)[C@]2(O)[C@H](C(=O)OC)[C@H]1C[C@@H](c1ccc(Cl)cc1)[C@H]2C(=O)OC (stereo not given in full)
inactive: [1] 6.41 µM | [2] 5.64 µM | [3] 10.9 µM | [4] 19.3 µM | [5] 14.5 µM | [6] 4.27 µM | [7] 16.5 µM | [8] 3.64 µM | [9] 6.56 µM | [10] 11.1 µM | [11] 14.5 µM | [12] 4.06 µM | [13] 6.41 µM | [14] 2.7 µM | [15] 5.5 µM | [16] 4.17 µM | [17] 7.29 µM | [18] 6.58 µM | [19] 6.05 µM | [20] 8.97 µM

O=c1c2ncn(CCCl)c2n(-c2ccccc2)c(=S)n1-c1ccccc1
inactive: [1] > 100 µM | [2] > 100 µM | [3] > 100 µM | [4] > 100 µM | [5] > 100 µM | [6] 86.9 µM | [7] > 100 µM | [8] > 100 µM | [9] > 100 µM | [10] > 100 µM | [11] > 100 µM | [12] > 100 µM | [13] > 100 µM | [14] > 100 µM | [15] > 100 µM | [16] > 100 µM | [17] > 100 µM | [18] > 100 µM | [19] > 100 µM | [20] 99.5 µM

COc1ccc(N2CCN(c3ccc4c(c3)NCC(=O)N4)CC2)cc1
inactive: [1] 32.2 µM | [2] 66.2 µM | [3] 39.2 µM | [4] 23.5 µM | [5] 45.8 µM | [6] 28.8 µM | [7] 34.4 µM | [8] 60.7 µM | [9] 23.1 µM | [10] 32.1 µM | [11] 54.7 µM | [12] 21.4 µM | [13] 42.8 µM | [14] 91.6 µM | [15] 59.4 µM | [16] 9.75 µM | [17] 61.5 µM | [18] 15.4 µM | [19] 25.6 µM | [20] 26.9 µM

CCCCC1C(=O)N(c2ccc(S(=O)(=O)Nc3ccccn3)cc2)N(c2ccc(O)c(C(=O)O)c2)C1=O (stereo not given)
inactive: [1] > 100 µM | [2] > 100 µM | [3] > 100 µM | [4] > 100 µM | [5] > 100 µM | [6] > 100 µM | [7] > 100 µM | [8] > 100 µM | [9] > 100 µM | [10] > 100 µM | [11] > 100 µM | [12] > 100 µM | [13] > 100 µM | [14] > 100 µM | [15] > 100 µM | [16] > 100 µM | [17] > 100 µM | [18] > 100 µM | [19] > 100 µM | [20] > 100 µM
